Laboratory results as given in paper PMC4326964, “Probing the substrate specificity of Trypanosoma brucei GlcNAc-PI de-N-acetylase with synthetic substrate analogues” (Organic & Biomolecular Chemistry, 2014).
Entries after “also recorded” stand apart in the source; their conditions may differ.

How the values were obtained:
[1] = biological target: T1, T. brucei GlcNAc-PI de-N-acetylase (Trypanosoma brucei brucei, UniProt Q8I8A5); assay: Substrate recognition (de-N-acetylation turnover) in T. brucei cell-free system, LC-MS/MS assay; format: biochemical; details: for Turnover: conversion of N-acetylated compound to free amine, 37 °C, 1 h, ND = turnover not detected, for 53 measured via d6-Ac2O derivatisation of the free amine; for Relative turnover: turnover relative to α-D-GlcpNAc-PI (1); for Substrate activity: recognised and processed (in words): N-acetylated analogue as substrate of the de-N-acetylase
T1 sequence (Q8I8A5 entry or part of it): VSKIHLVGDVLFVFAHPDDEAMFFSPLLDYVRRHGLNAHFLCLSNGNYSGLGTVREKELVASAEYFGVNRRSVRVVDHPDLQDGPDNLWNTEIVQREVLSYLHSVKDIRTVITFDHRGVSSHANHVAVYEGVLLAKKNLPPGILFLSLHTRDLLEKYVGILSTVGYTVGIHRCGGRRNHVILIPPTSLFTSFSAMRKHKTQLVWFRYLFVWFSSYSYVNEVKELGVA
Procedure: [8],[10] The N-acetylated analogues of these compounds were prepared as previously described to give compounds 47–53 (Fig. 3).
Using LC-MS/MS, multiple reaction monitoring of characteristic transitions for the N-acetylated and corresponding amine form of each compound was used to directly measure the rate of conversion of the N-acetylated compound to the free amine (Table 1). As no suitable transition was identified for the amine form of 13, the enzymatic turnover was accessed by reacting any free amine formed with d 6-Ac2O, and measuring the formation of the d 3-N-acetylated form by LC-MS/MS.
The synthesis of 1-D-6-O-(2-amino-2-deoxy-α-D-glucopyranosyl)-myo-inositol 1-(octadecyl phosphate), (4, α-D-GlcpNH2-IPC18), [15] has been described previously. The corresponding N-acetyl derivate α-D-GlcpNAc-IPC18 (3) was prepared by treatment with acetic anhydride, [13] and the concentration of stock solutions determined by measurement of the inositol content by selected ion-monitoring GC-MS. Bloodstream form Trypanosome brucei (variant MITat1.4) were isolated and membranes (cell-free system) prepared as described previously and stored at –80 °C.
Substrate recognition assays were performed using 500 pmol of α-D-GlcpNAc-PI (1) in incorporation buffer (25 mM Tris pH 8.0, 50 mM KCl, 50 mM MnCl2) and varying amounts of trypanosome cell-free system (0–15 × 10^6 cell equivalents per assay) in 96-well plates containing 100 μL final volume, and incubated at 37 °C for 1 h. The reaction was quenched and the glycolipids enriched and analyzed by LC-MS/MS as described below.
(§1) Enrichment of glycolipids was performed in a 96-well plate format. Reactions were quenched by addition of 200 μL of 5% propan-1-ol, 5 mM NH4OAc, and the glycolipids were bound to C18 resin (50 mg Isolute Array cartridge), washed three times with 200 μL 5% propan-1-ol, 5 mM NH4OAc and eluted with 100 μL 40% propan-1-ol, 5 mM NH4OAc into a 96-well collection plate.
Prior to subsequent analysis, compound 13 was dried under nitrogen, resuspended in MeOH (100 μL) and any free amine reacted with excess d 6-Ac2O (1.5 μL) in the presence of pyridine (10 μL) for 15 min. The reaction was quenched with water (50 μL), dried under nitrogen and resuspended in 100 μL 40% propan-1-ol, 5 mM NH4OAc.
(§2) Glycolipids were analyzed by liquid chromatography coupled to an electrospray tandem mass spectrometer (LC-MS/MS). Samples (40 μL) were injected directly from a 96-well plate onto a 10 × 1 mm C18 column (ACE, […]) and then eluted using a binary gradient of 5–80% propan-1-ol in 5 mM NH4OAc (Dionex Ultimate 3000). The gradient consisted of 2 min 0% B, 2–4 min 0–100% B, 4–8 min 100%, 8–9 min 100–0% B, 9–10 min 0% B where buffer A consisted of 5% propan-1-ol, 5 mM NH4OAc and buffer B 80% propan-1-ol, 5 mM NH4OAc. The glycolipids were analysed on an electrospray triple quadrapole mass spectrometer (Micromass Quattro Ultima) in multiple reaction monitoring mode.
For each pseudodisaccharide analogue (7–12), standards of the N-acetylated compound and corresponding free amine were analyzed separately in order to identify unique transitions for use in subsequent multiple reaction monitoring experiments (Table 1). The ratio of the integrals for these transitions was used to calculate the percentage of substrate conversion to product in a given sample. For compound 13, standards of the N-acetylated compound and the d 3-N-acetylated form were analyzed separately and found to produce a common fragment for use in subsequent multiple reaction monitoring experiments.

[2] = biological target: T1, T. brucei GlcNAc-PI de-N-acetylase; details: previous studies; cited from earlier work
[3] = biological target: T1, T. brucei GlcNAc-PI de-N-acetylase; assay: Inhibition of turnover of α-D-GlcpNAc-IPC18 (3) in T. brucei cell-free system, LC-MS/MS assay; format: biochemical; details: inhibition of turnover of 3; tested at 100 μM
Procedure: Since the majority of the compounds were not processed by the T. brucei GlcNAc-PI de-N-acetylase, we tested their ability to inhibit the turnover of the α-D-GlcpNAc-IPC18 (3) substrate by the T. brucei GlcNAc-PI de-N-acetylase in the LC-MS/MS assay.
Inhibition assays were performed in 96-well plates in 100 μL final volume, with 1% v/v DMSO with or without inhibitor. Trypanosome cell-free system (2.5 × 10^6 cell equivalents per assay) in incorporation buffer were added to wells containing 500 pmol α-D-GlcpNAc-IPC18 (3) with or without inhibitor and incubated at 37 °C for 1 h. The reaction was quenched and the glycolipids enriched and analyzed by LC-MS/MS as described below.
as §1, §2
For inhibition assays, the turnover of the substrate α-D-GlcpNAc-IPC18 (3) was used to calculate the percentage of substrate conversion to product in a given sample. Inhibitor IC50 values were calculated using a four-parameter fit of eight-point potency curves derived from three independent experiments, and are quoted with a standard deviation.

[4] = system: T. brucei GPI pathway; assay: Trypanosome cell-free system with [3H]-mannose labelling (HPTLC, fluorography); format: biochemical, Trypanosoma brucei
Excerpt: The ability of 49 and 48 to act as a substrate and inhibitor, respectively, of the T. brucei GPI pathway was confirmed using the trypanosome cell-free system with [^3H]-mannose labelling (Fig. 5). […] As these mannosylated compounds lack the inositol 2-OH group they cannot undergo inositol acylation, a prerequisite for the transfer of ethanolamine, and thus are not processed past the Man3-species.
Fig. 5 The trypanosome GPI biosynthesis in the cell-free system. A. The T. brucei cell-free system was incubated without exogenous substrate, with 1, α-D-GlcpNAc-PI (10 μM), or with 49 (100 μM) in the presence of GDP-[^3H]Mannose to stimulate the production of radiolabelled mannosylated GPI intermediates. B. Inhibition of the turnover of 3, α-D-GlcpNAc-IPC18 (10 μM), in the presence of 48 (100 μM). Glycolipid products were extracted, separated by high-performance thin-layer chromatography, and visualised by fluorography. DPM – dolichol-phosphate-mannose, M1 – Man1 species, M2 – Man2 species, M3 – Man3 species, A′ – EtNPMan3 species, where the identity and migration of the species depends on the glycolipid substrate employed.
The formation of GPI precursors is monitored by following the incorporation of [^3H]-mannose and then they were analysed using […] and fluorography as described previously.

| Compound | Inhibitory activity (in words) [3] | Substrate activity: recognised and processed (in words) [1] | also measured |
| --- | --- | --- | --- |
| CCCCCCCCCCCCCCCC(=O)OCC(COP(=O)(O)OC1C(O)C(O)C(O)C(O)C1OC1OC(CO)C(O)C(O)C1NC(C)=O)OC(=O)CCCCCCCCCCCCCCC [Compound 1, 1-D-(2-acetamido-2-deoxy-α-D-glucopyranosyl)-myo-inositol 1-(1,2-di-O-hexadecanoyl-sn-glycerol 3-phosphate), reference compound] | – | – | Turnover [1]: 6.1 ± 0.9 pmol/10^6 cells equiv.; Relative turnover [1]: 100%; Recognition and processing by the enzyme (in words) [2]: recognised and processed |
| CCCCCCCCCCCCCCCCCCOP(=O)(O)OC1C(O)C(O)C(O)C(O)C1OC1OC(CO)C(O)C(O)C1NC(C)=O (stereo not shown) [Compound 3, reference compound] | – | – | Turnover [1]: 27.0 ± 6.0 pmol/10^6 cells equiv.; Relative turnover [1]: 450% |
| CCCCCCCCCCCCCCCC(=O)OC[C@H](COP(=O)(O)O[C@H]1[C@@H](O)[C@@H](O)[C@H](O)[C@@H](O)[C@@H]1O[C@H]1O[C@H](CO)[C@@H](O)[C@H](O)[C@H]1NC(C)=O)OC(=O)CCCCCCCCCCCCCCC [Compound 5] | – | – | Recognition and processing by the enzyme (in words) [2]: recognise and process |
| CCCCCCCCCCCCCCCC(=O)OC[C@H](COP(=O)(O)O[C@@H]1[C@H](O)[C@H](O)[C@@H](O)[C@H](O)[C@H]1O[C@@H]1O[C@H](CO)[C@@H](O)[C@H](O)[C@H]1NC(C)=O)OC(=O)CCCCCCCCCCCCCCC [Compound 6] | – | – | Recognition and processing by the enzyme (in words) [2]: recognised and processed; also recorded: recognise and process |
| CCCCCCCCCCCCCCCCCCOP(=O)(O)O[C@@H]1CCCC[C@H]1O[C@H]1O[C@H](CO)[C@@H](O)[C@H](O)[C@H]1NC(C)=O [Compound 47] | act as inhibitors | – | – |
| CCCCCCCCCCCCCCCCCCOP(=O)(O)O[C@@H]1CCCC[C@H]1O[C@@H]1O[C@H](CO)[C@@H](O)[C@H](O)[C@H]1NC(C)=O [Compound 48] | act as inhibitors | – | Inhibition of priming of the cell-free system with 3 ([4]; 3 (α-D-GlcpNAc-IPC18) at 10 μM, inhibitor at 100 μM): efficiently prevented |
| CCCCCCCCCCCCCCCC(=O)OC[C@H](COP(=O)(O)O[C@@H]1CCCC[C@H]1O[C@H]1O[C@H](CO)[C@@H](O)[C@H](O)[C@H]1NC(C)=O)OC(=O)CCCCCCCCCCCCCCC [Compound 49] | – | both recognised and processed | Turnover [1]: 1.3 ± 0.3 pmol/10^6 cells equiv.; Relative turnover [1]: 22%; Formation of mannosylated GPI intermediates on priming the cell-free system ([4]; 49 at 100 μM, GDP-[3H]Mannose, bands sensitive to jackbean α-mannosidase): three bands corresponding to the addition of 1–3 mannose residues |
| CCCCCCCCCCCCCCCC(=O)OC[C@H](COP(=O)(O)O[C@@H]1CCCC[C@H]1O[C@@H]1O[C@H](CO)[C@@H](O)[C@H](O)[C@H]1NC(C)=O)OC(=O)CCCCCCCCCCCCCCC [Compound 50] | neither a substrate nor an inhibitor | neither a substrate nor an inhibitor | – |
| CCCCCCCCCCCCCCCCCCS(=O)(=O)N[C@@H]1CCCC[C@H]1O[C@@H]1O[C@H](CO)[C@@H](O)[C@H](O)[C@H]1NC(C)=O [Compound 51] | inability | inability | – |
| CCCCCCCCCCCCCCCCCCS(=O)(=O)N[C@@H]1CCCC[C@H]1O[C@H]1O[C@H](CO)[C@@H](O)[C@H](O)[C@H]1NC(C)=O [Compound 52] | inability | inability | – |
| CCCCCCCCCCCCCCCCCCOP(=O)(O)O[C@@H]1CCCC[C@H]1OCC(CO)NC(C)=O (stereo partly shown) [Compound 53] | inactivity | inactivity | – |
